From US4414388A, “1-Oxo-1H-thiazolo[3,2-a]pyrimidine-2-carboxamides” (Pfizer Inc., priority 1981, dated 1983)

Assays:
[1] = test system: cold-restraint stress gastric ulcer; assay: cold-restraint stressed rat assay; format: in vivo
Method: The effectiveness of the products of this invention as anticulcer agents is determined by the so-called cold-restraint stressed rat assay. In this test nonfasted female rats (Charles River C-D strain) weighing 70-140 gms. are administered the drug or carrier (control animals) intraperitoneally (in saline solution containing 1% carboxymethylcellulose and 0.1% Tween 80) or orally (in water) three hours before being lightly anesthetized with ether and taped in the supine position to individual sheets of plexiglass. After recovery from anesthesia, the restrained animals are positioned horizontally in a refrigerator maintained at 10°-12° C. and three hours later sacrificed by cervical dislocation. The abdomen of each rat is opened, the pylorus clamped, the stomach inflated with saline via an oral tube, the esophagus clamped and the stomach excised. The stomachs are placed in a 0.4% formaldehyde solution for approximately 30 seconds to harden the outer layers and facilitate examination. Each stomach is then cut open along the greater curvature and the glandular portion (hind stomach) examined for damage. The number of gastric erosions, their severity and the color of the stomachs is recorded. […]

[2] = test system: anticholinergic effects; assay: anticholinergic effects
[3] = test system: IgE-mediated passive cutaneous anaphylaxis (PCA); assay: PCA test, intravenous, comparison with Intal, IgE-mediated permeability; format: in vivo, rat
Method: (§1) In the PCA test, normal animals are injected intradermally (i.d.) with antibodies contained in serum obtained from actively sensitized animals. The animals are then challenged intravenously with antigen mixed with a dye such as Evans' Blue. The increased capillary permeability caused by the antigen-antibody reaction causes the dye to leak from the site of the antibody injection. The test animals are then asphyxiated and the intensity of the reaction determined by measuring the diameter and intensity of the blue coloration on the inner surface of the animals' skin.
The ability of agents to interfere with PCA reactions is measured in male Charles River Wistar rats, 170-210 g. Reaginic antiserum, rich in IgE antibodies, is prepared according to Petillo et al., Int. Arch. […] Hyperimmune antiserum rich in IgG antibodies to hen egg albumin is prepared according to Orange et al., J. Exptl. […] Forty-eight hours prior to antigen challenge, the reaginic antiserum is injected intradermally (i.d.) into the shaved skin of a normal rat's back; 5 hours before challenge the hyperimmune antisera is similarly injected. […] The difference is expressed as percent blockage due to the compound employed.

[4] = test system: IgG; assay: passive cutaneous anaphylaxis (PCA) test, oral, IgG (hyperimmune antiserum) site; format: in vivo, rat; details: Table I, 1 mg./kg.
Method: as §1, with “The antiallergy property of the compounds of this invention is evaluated by the passive cutaneous anaphylaxis (PCA) test (Ovary, J. Immun., 81, 355, 1958). In” for “In”
The PCA test is a measure of the anti-allergic (especially anti-asthmatic) activity of a compound. Compounds which inhibit a positive PCA test induced by the rat immunochemical counterpart of human immunoglobulin E (IgE), or reagin, are considered to have anti-allergic activity (C. Mota, Ann. N.Y. Acad. Sci., 103, 264 1963). (Reagin is primarily immunoglobulin E [IgE] and is the principal immunoglobulin responsible for allergic asthma, anaphylaxis, hay fever, food sensitivities and certain manifestations of drug sensitivities, although recent evidence ascribes to the IgG class of antibodies a significant role in the mediation of allergic diseases). Such compounds when administered to a sensitized subject, human or animal, prior to the time when the subject comes into contact with antigens or substances to which it is allergic, will prevent the allergic reaction which would otherwise occur. They, therefore, provide a method for the prophylactic treatment of allergy or anaphylactic reactions of a reagin mediated nature.
To put it another way, such compounds block the release of mediators resulting from the antigen-antibody (allergic) reaction as illustrated in the PCA test using rat homocytotropic antibody--a known correlate of human reaginic antibody. Inhibition of reaginic antigen-antibody reactions in rats, the test animal of the PCA test, is regarded as representative of inhibition of human reaginic antigen-antibody reactions which occur during allergic episodes.
The ability of agents to interfere with PCA reactions is measured in male Charles River Wistar rats, 170-210 g. Reaginic antiserum, rich in IgE antibodies, is prepared according to Petillo et al., Int. Arch. Allergy, 44, 309 (1973). Hyperimmune antiserum rich in IgG antibodies to hen egg albumin is prepared according to Orange et al., J. Exptl. Med., 127, 767 (1968). Forty-eight hours prior to antigen challenge, the reaginic antiserum is injected intradermally (i.d.) into the shaved skin of a normal rat's back; 5 hours before challenge the hyperimmune antisera is similarly injected. At a third site 60 mcg. histamine dihydrochloride and 0.5 mcg. serotonin creatinine sulfate are injected i.d. just prior to antigen challenge as a check for antihistaminic, antiserotonin and unspecific types of blockage; the compounds of the instant invention or saline are then administered i.v. and immediately followed by the challenge of 5 mg. egg albumen and 2.5 mg. Evans' Blue dye in saline. In the case of oral administration Evans' Blue dye and egg albumin are given 5 minutes after administration of the drug. Thirty minutes later the animals are asphyxiated using chloroform and the skin of the back removed and reversed for observation. A score is assigned each injection site equal to the product of the diameter of the site in mm. and a grade of 0.1, 0.5, 1, 2, 3 or 4 proportional to intensity of dye coloration. The scores for a given injection site are summed for each group of five animals and compared to the saline treated controls. The difference is expressed as percent blockage due to the compound employed. […]

[5] = test system: dextran induced release of histamine; assay: dextran induced release of histamine into the rat peritoneal cavity; format: in vivo; details: ip
Description: Compound III inhibits dextran induced release of histamine into the rat peritoneal cavity.

[6] = test system: inhaled histamine; assay: bronchoconstrictive effects of inhaled histamine; format: in vivo, guinea pig; details: 30 mg/kg i.p.

In the case of `O=C(Nc1nnn[nH]1)c1cnc2sc3c(n2c1=O)CCCC3` [compound III, N-(5-tetrazolyl)-1-oxo-1H-cyclohexenothiazolo[3,2-a]pyrimidine-2-carboxamide], the “potency in the cold-restraint stress gastric ulcer procedure and the ethanol-induced rat ulcer assay, in words” value ([1]; oral) is reported as “highly potent”, the “potency in the cold-restraint stressed rat assay” value ([1]; rat, in vivo) is reported as “extremely potent” and the anticholinergic effects [2] is reported as “no significant anticholinergic effects”. The “intravenous activity in the PCA test, dose range” value ([3]; intravenous) was 30 to 1000 µg/kg, the “changes in cutaneous permeability induced by IgE-mediated PCA” value ([3]; rat, in vivo) was “blocks the changes in cutaneous permeability” and the “Oral Activity (% of Protection) of Amides in the PCA Test, IgG 1 mg./kg.” value [4] was 45%. The ED50 [5] was 0.33 µg/kg and the “protection against bronchoconstrictive effects of inhaled histamine” value [6] was “not protected”.
